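Step 1: Grow cells in 96-well plates. Step 2: Expose to compound for 48 hours at 5 concentrations. Step 3: Interpolate endpoints linearly; if unreached, use highest concentration. TGI marks complete inhibition of growth.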
Tests used:
Test in all cases: DTP human tumour cell line panel, 48 h
[1] = system: CCRF-CEM leukemia
[2] = system: HL-60(TB) leukemia
[3] = system: SN12C renal
[4] = system: U251 CNS
[5] = system: DMS 114 small cell lung
[6] = system: UACC-62 melanoma
[7] = system: M14 melanoma
[8] = system: MOLT-4 leukemia
[9] = system: HOP-92 NSCLC
[10] = system: M19-MEL melanoma
[11] = system: HCT-116 colon
[12] = system: EKVX NSCLC
[13] = system: A549 NSCLC
[14] = system: OVCAR-3 ovarian
[15] = system: SF-268 CNS
[16] = system: TK-10 renal
[17] = system: NCI-H522 lung
[18] = system: NCI-H226 lung
[19] = system: LXFL 529 NSCLC
[20] = system: NCI-H460 lung
[21] = system: KM12 colon
[22] = system: HT29 colon
[23] = system: SF-539 CNS
[24] = system: K-562 leukemia
[25] = system: SK-MEL-5 melanoma
[26] = system: SNB-78 CNS
[27] = system: DLD-1 colon
[28] = system: NCI-H23 lung
[29] = system: COLO 205 colon
[30] = system: HCT-15 colon
[31] = system: SK-MEL-28 melanoma
[32] = system: 786-0 renal
[33] = system: RPMI-8226 leukemia
[34] = system: SNB-19 CNS
[35] = system: UACC-257 melanoma
[36] = system: OVCAR-8 ovarian
[37] = system: UO-31 renal
[38] = system: CAKI-1 renal
[39] = system: IGROV1 ovarian
[40] = system: SF-295 CNS
[41] = system: SK-MEL-2 melanoma
[42] = system: SW-620 colon
[43] = system: HOP-18 NSCLC
[44] = system: HOP-62 NSCLC
[45] = system: LOX IMVI melanoma
[46] = system: MALME-3M melanoma
[47] = system: OVCAR-5 ovarian
[48] = system: HCC-2998 colon
[49] = system: ACHN renal
[50] = system: OVCAR-4 ovarian
[51] = system: SK-OV-3 ovarian
[52] = system: RXF 393 renal
[53] = system: SR leukemia
[54] = system: SNB-75 CNS
[55] = system: DMS 273 small cell lung
[56] = system: A498 renal
[57] = system: KM20L2 colon
[58] = system: HS 578T breast
[59] = system: PC-3 prostate
[60] = system: BT-549 breast
[61] = system: MDA-MB-435
[62] = system: T-47D breast
[63] = system: MCF7 breast
[64] = system: NCI/ADR-RES ovarian
[65] = system: MDA-MB-231 breast
[66] = system: MDA-N
[67] = system: DU-145 prostate

Measured: TGI

CCOC(=O)C(=O)Nc1ccc(C)cc1C
> 100 µM: [1] | [2] | [3] | [4] | [5] | [6] | [7] | [8] | [9] | [10] | [11] | [12] | [13] | [14] | [15] | [16] | [17] | [18] | [19] | [20] | [21] | [22] | [23] | [24] | [25] | [26] | [27] | [28] | [29] | [30] | [31] | [32] | [33] | [34] | [35] | [36] | [37] | [38] | [39] | [40] | [41] | [42] | [43] | [44] | [45] | [46] | [47] | [48] | [49] | [50] | [51] | [52] | [53]

NC(=O)N1N=C2c3ccccc3CC[C@@H]2C1c1ccccc1 (stereo not given in full)
> 100 µM: [1] | [2] | [3] | [4] | [5] | [6] | [7] | [8] | [10] | [11] | [54] | [55] | [12] | [13] | [14] | [56] | [15] | [16] | [17] | [18] | [19] | [20] | [21] | [22] | [23] | [24] | [25] | [57] | [26] | [27] | [28] | [29] | [30] | [31] | [32] | [33] | [34] | [35] | [36] | [37] | [38] | [39] | [40] | [41] | [42] | [44] | [45] | [46] | [47] | [48] | [49] | [51] | [52]

COc1ccc(-c2csc(=Nc3ccccc3)n2CC(O)c2ccc([N+](=O)[O-])cc2)cc1 (stereo not given)
> 100 µM: [58] | [1] | [2] | [3] | [59] | [4] | [6] | [7] | [8] | [60] | [9] | [11] | [54] | [12] | [13] | [14] | [56] | [15] | [61] | [16] | [62] | [17] | [18] | [20] | [21] | [22] | [23] | [24] | [25] | [63] | [28] | [64] | [29] | [30] | [31] | [32] | [33] | [34] | [35] | [65] | [36] | [37] | [38] | [39] | [40] | [41] | [42] | [66] | [44] | [45] | [46] | [47] | [48] | [49] | [50] | [51] | [52] | [53] | [67]
